Measured values: BindingDB's records for patent US20250002452 (Icagen, 2025)
pEC50: −log10 of the molar value.

Target: Potassium voltage-gated channel subfamily KQT member 2 (Homo sapiens, UniProt O43526)
Assay: SyncroPatch 384 (Nanion) High Throughput Electrophysiology Assay
Source text: Solutions were of the following composition:Earle's balanced salt solution (in mM): 135 NaCl, 5.4 KCl, 5 Glucose, 2 CaCl2), 1 MgCl2, 5 HEPES, pH 7.4. Seal enhancer solution (in mM): 90 NaCl, 3 KCl, 35 CaCl2), 10 MgCl2, 10 HEPES, pH 7.4. Extracellular recording solution (in mM): 71 NaCl, 70 NMDG, 13 KCl, 5 Glucose, 2 CaCl2), 1 MgCl2, 10 HEPES, pH 7.4. Intracellular recording solution (in mM): 130 KF, 20 KCl, 4 EGTA, 10 HEPES, 2 EDTA, 0.01 Escin, pH 7.2.

Sequence of Potassium voltage-gated channel subfamily KQT member 2 (O43526 whole entry): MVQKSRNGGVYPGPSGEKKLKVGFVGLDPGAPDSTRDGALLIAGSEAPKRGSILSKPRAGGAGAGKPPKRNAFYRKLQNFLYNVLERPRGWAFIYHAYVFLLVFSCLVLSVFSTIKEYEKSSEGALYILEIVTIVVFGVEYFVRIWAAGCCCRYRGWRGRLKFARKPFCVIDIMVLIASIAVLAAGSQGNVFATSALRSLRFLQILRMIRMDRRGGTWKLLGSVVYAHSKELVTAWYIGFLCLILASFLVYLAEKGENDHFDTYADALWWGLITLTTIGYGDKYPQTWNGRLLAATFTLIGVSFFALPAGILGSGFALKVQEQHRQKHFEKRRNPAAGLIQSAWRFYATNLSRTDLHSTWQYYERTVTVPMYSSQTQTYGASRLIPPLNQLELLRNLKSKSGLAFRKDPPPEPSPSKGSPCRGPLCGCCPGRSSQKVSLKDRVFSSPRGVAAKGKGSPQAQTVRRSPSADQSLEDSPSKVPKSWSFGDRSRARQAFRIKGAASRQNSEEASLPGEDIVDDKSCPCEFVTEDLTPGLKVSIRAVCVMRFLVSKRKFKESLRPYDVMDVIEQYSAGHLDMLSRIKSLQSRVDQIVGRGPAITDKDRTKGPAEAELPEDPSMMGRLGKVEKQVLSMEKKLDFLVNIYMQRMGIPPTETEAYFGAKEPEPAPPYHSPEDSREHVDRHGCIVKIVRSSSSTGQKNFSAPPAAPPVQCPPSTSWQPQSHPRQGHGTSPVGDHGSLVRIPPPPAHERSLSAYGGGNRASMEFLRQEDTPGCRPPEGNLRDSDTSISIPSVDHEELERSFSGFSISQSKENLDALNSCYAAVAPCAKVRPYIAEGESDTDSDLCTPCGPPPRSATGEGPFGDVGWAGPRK

pEC50: 6.74
Compound: CC(NC(=O)NC12CC(F)(C1)C2)c1cccc(OC(F)F)c1 (stereo unspecified) [US20250002452, Example 38]
